Molecular target: T1, Solute carrier organic anion transporter family member (Danio rerio, UniProt A0A8M9PU70)
T1 sequence (A0A8M9PU70 whole entry): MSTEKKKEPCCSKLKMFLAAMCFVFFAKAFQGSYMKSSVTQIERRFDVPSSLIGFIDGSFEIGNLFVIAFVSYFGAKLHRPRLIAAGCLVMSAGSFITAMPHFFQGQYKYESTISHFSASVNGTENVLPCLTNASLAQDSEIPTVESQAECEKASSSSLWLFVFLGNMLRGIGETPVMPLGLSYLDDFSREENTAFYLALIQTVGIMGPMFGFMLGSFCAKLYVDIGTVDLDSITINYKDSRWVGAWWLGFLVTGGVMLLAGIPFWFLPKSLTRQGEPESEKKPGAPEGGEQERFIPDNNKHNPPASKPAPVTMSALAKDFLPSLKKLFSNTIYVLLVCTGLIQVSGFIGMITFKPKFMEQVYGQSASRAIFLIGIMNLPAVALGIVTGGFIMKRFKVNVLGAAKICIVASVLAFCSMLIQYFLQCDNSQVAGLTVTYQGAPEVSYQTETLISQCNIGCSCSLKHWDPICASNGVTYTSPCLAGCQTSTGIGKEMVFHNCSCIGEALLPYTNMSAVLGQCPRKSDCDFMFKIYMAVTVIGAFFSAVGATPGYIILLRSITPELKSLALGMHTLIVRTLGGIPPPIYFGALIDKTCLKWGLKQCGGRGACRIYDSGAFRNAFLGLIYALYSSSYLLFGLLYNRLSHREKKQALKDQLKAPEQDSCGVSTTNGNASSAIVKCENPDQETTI
Test: Oatp1d1 Transport Assay
Experimental: (§1) In the inhibition experiments, the cells were preincubated for 20 s with test compounds, followed by a 5-min incubation with [3H]E3S (5 nM) or 30-min incubation with LY (5 μM).

SMILES	Ki
C[C@H](CCC(=O)NCCS(=O)(=O)O)[C@H]1CC[C@H]2[C@@H]3[C@H](O)C[C@@H]4C[C@H](O)CC[C@]4(C)[C@H]3CC[C@]12C	3.4 µM
C[C@]12CCC(=O)C[C@@H]1CC[C@@H]1[C@@H]2CC[C@]2(C)[C@@H](O)CC[C@@H]12 [DHT]	23.4 µM
N[C@@H](Cc1cc(I)c(Oc2ccc(O)c(I)c2)c(I)c1)C(=O)O [triothyrone]	42.7 µM
C[C@]12CCC(=O)C=C1CC[C@@H]1[C@@H]2CC[C@]2(C)C(=O)CC[C@@H]12 [Androst-4-en-3,17-dione, 2]	3.78 µM
CC(=O)[C@H]1CC[C@H]2[C@@H]3CCC4=CC(=O)CC[C@]4(C)[C@H]3CC[C@]12C	9.06 µM
C=CC1=C(C)/C(=C/c2[nH]c(Cc3[nH]c(/C=C4\NC(=O)C(C)=C4C=C)c(C)c3CCC(=O)O)c(CCC(=O)O)c2C)NC1=O [BILIRUBIN]	14.5 µM
C[C@]12CC[C@H]3[C@@H](CCC4=CC(=O)CC[C@@]43C)[C@@H]1CC[C@@H]2O [Testosterone, 1]	30 µM
CC[C@H](C)C(=O)O[C@H]1C[C@H](O)C=C2C=C[C@H](C)[C@H](CC[C@@H](O)C[C@@H](O)CC(=O)O)[C@H]21 [(3R,5R)-7-[(1S,2S,6S,8S,8aR)-6-hydroxy-2-methyl-8-{[(2S)-2-methylbutanoyl]oxy}-1,2,6,7,8,8a-hexahydronaphthalen-1-yl]-3,5-dihydroxyheptanoic acid]	9.27 µM
CC[C@H]1OC(=O)[C@H](C)[C@@H](O[C@H]2C[C@@](C)(OC)[C@@H](O)[C@H](C)O2)[C@H](C)[C@@H](O[C@@H]2O[C@H](C)C[C@H](N(C)C)[C@H]2O)[C@](C)(O)C[C@@H](C)C(=O)[C@H](C)[C@@H](O)[C@]1(C)O	882 µM
C[C@]12C[C@H](O)[C@H]3[C@@H](CCC4=CC(=O)CC[C@@]43C)[C@@H]1CC[C@@H]2C(=O)CO [11beta,21-dihydroxypregn-4-ene-3,20-dione]	105 µM
CO[C@H]1/C=C/O[C@@]2(C)Oc3c(C)c(O)c4c(c3C2=O)C(=O)/C(=C/NN2CCN(C)CC2)C(=C4O)NC(=O)/C(C)=C\C=C\[C@H](C)[C@H](O)[C@@H](C)[C@@H](O)[C@@H](C)[C@H](OC(C)=O)[C@@H]1C [Rifampicin]	12.7 µM
CC(C)OC(=O)C(C)(C)Oc1ccc(C(=O)c2ccc(Cl)cc2)cc1 [Finofibrate]	54.4 µM
CCCCC[C@H](O)/C=C/[C@H]1[C@H](O)CC(=O)[C@@H]1C/C=C\CCCC(=O)O [DINOPROSTONE]	227 µM
O=C1OC(c2ccc(O)c(S(=O)(=O)O)c2)(c2ccc(O)c(S(=O)(=O)O)c2)c2c(Br)c(Br)c(Br)c(Br)c21 [BROMOSULFOPHTHALEIN]	2.99 µM
Cc1ccc(C)c(OCCCC(C)(C)C(=O)O)c1 [5-(2,5-dimethylphenoxy)-2,2-dimethylpentanoic acid]	7.44 µM
C[C@]12CC[C@@H]3c4ccc(OS(=O)(=O)O)cc4CC[C@H]3[C@@H]1CCC2=O [Estrone Sulphate]	1.01 µM
C[C@]12CC[C@@H]3c4ccc(O)cc4CC[C@H]3[C@@H]1CC[C@@H]2O [[2,4,6,7-3H]-17beta-estradiol]	2.83 µM
CC(=O)C[C@H](c1ccccc1)c1c(O)c2ccccc2oc1=O [2-hydroxy-3-(3-oxo-1-phenylbutyl)-4H-chromen-4-one]	0.36 µM
CC(C)(Oc1ccc(CCNC(=O)c2ccc(Cl)cc2)cc1)C(=O)O [Cedur]	40.4 µM
CN(Cc1cnc2nc(N)nc(N)c2n1)c1ccc(C(=O)N[C@@H](CCC(=O)O)C(=O)O)cc1 [MTX]	222 µM
C[C@H](CCC(=O)O)[C@H]1CC[C@H]2[C@@H]3CC[C@@H]4C[C@H](O)CC[C@]4(C)[C@H]3C[C@H](O)[C@]12C [Deoxycholic Acid]	9.94 µM
C[C@H](CCC(=O)O)[C@H]1CC[C@H]2[C@@H]3[C@H](O)C[C@@H]4C[C@H](O)CC[C@]4(C)[C@H]3C[C@H](O)[C@]12C [Cholic Acid]	141 µM
C[C@]12CCC(=O)C=C1CC[C@@H]1[C@@H]2[C@@H](O)C[C@@]2(C)[C@H]1CC[C@]2(O)C(=O)CO [[3H]cortisol]	120 µM
CCCN(CCC)S(=O)(=O)c1ccc(C(=O)O)cc1	26 µM
C[C@]12CC[C@@H]3c4ccc(O)cc4CC[C@H]3[C@@H]1CC[C@@H]2O[C@@H]1O[C@H](C(=O)O)[C@@H](O)[C@H](O)[C@H]1O [17beta-Estradiol-17-(beta-D-glucuronide)]	3.26 µM

Molecular target: T2, Solute carrier organic anion transporter family member [3-691] (Zebrafish, UniProt A0A0R4IW35)
T2 construct: 3-691
T2 sequence (A0A0R4IW35 whole entry): T1 sequence (A0A8M9PU70 whole entry)
Test: Oatp1d1 Transport Assay
Experimental: as §1

SMILES	Ki
CCOC(=O)C(C)(C)Oc1ccc(Cl)cc1 [2-(4-Chlorophenoxy)-2-methylpropanoic acid ethyl ester]	345 µM

Reference: BindingDB's records for doi:10.1074/jbc.M113.518506 (Rudjer Boskovic Institute, 2013)
